# Test results: ChEMBL document CHEMBL5233248, “Resveratrol - A comprehensive review of recent advances in anticancer drug design and development” (Eur J Med Chem, 2020)
# Values joined by “and” are separate entries in the source; they are usually repeats but may differ in a detail not shown here. Equal entries are not always repeated.
# Experiments:
# A549 [1] = test: Anticancer activity against human A549 cells assessed as cell growth inhibition measured after 72 hrs by MTT assay; type: functional, cell-based; settings: a549
# U-251 = test: Anticancer activity against human U-251MG cells assessed as cell growth inhibition by CyQuant assay; type: functional, cell-based
# MDA-MB-231 [2] = test: Anticancer activity against human MDA-MB-231 cells assessed as cell growth inhibition by CyQuant assay; type: functional, cell-based
# SK-OV-3 [3] = test: Anticancer activity against human SK-OV-3 cells assessed as cell growth inhibition incubated for 24 hrs […] by MTT assay; type: functional, cell-based; settings: SK-OV-3, 24 h
# MCF7 [4] = test: cells; settings: Homo sapiens, MCF7, 48 h
# Description: Anticancer activity against human MCF7 cells assessed as cell growth inhibition incubated for 48 hrs in presence of Curcumin by MTS assay
# [5] = Cytotoxicity against mouse NIH3T3 cells assessed as cell growth inhibition by CyQuant assay; type: toxicity, cell-based
# PANC-1 = test: Anticancer activity against human PANC-1 cells assessed as cell growth inhibition by CyQuant assay; type: functional, cell-based
# Renal cancer cell line = test: Growth inhibition of human Renal cancer cell line; type: functional
# HL-60 = test: Anticancer activity against human HL-60 cells assessed as cell growth inhibition incubated for 48 hrs by MTT assay; type: functional, cell-based; settings: HL-60, 48 h
# HepG2 [6] = test: Anticancer activity against human HepG2 cells assessed as cell growth inhibition incubated for 3 days by MTT assay; type: functional, cell-based; settings: HepG2, 72 h
# [7] = Cytotoxicity activity against human CCD-1059Sk cells assessed as cell growth inhibition incubated for 48 hrs in presence of Curcumin by MTS assay; type: toxicity, cell-based
# CYP1A = CYP1A (Homo sapiens, UniProt P04798+P05177); test: Inhibtion of CYP1A (unknown origin); type: ADME, protein assay
# HeLa [8] = test: Anticancer activity against human HeLa cells assessed as cell growth inhibition; type: functional, cell-based
# MDA-MB-231 [9] = test: Anticancer activity against human MDA-MB-231 cells assessed as reduction in cell viability measured after 48 hrs at 150 uM by MTT assay relative to control; type: functional
# HT-29 [10] = test: Anticancer activity against human HT-29 cells assessed as cell growth inhibition incubated for 24 hrs by MTT assay; type: functional, cell-based; settings: Homo sapiens, HT-29, 24 h
# HaCaT = test: Anticancer activity against human HaCaT cells assessed as reduction of cell viability incubated for 48 hrs by MTT assay; type: functional, cell-based
# OVCAR-3 = test: Anticancer activity against human OVCAR-3 cells assessed as cell growth inhibition incubated for 24 hrs […] by MTT assay; type: functional, cell-based; settings: OVCAR-3, 24 h
# [11] = Anticancer activity against human Peritoneal mesothelial cells assessed as cell growth inhibition incubated for 24 hrs […] by MTT assay; type: functional, cell-based
# [12] = Anticancer activity against human HOSE cells assessed as cell growth inhibition by LDH release assay; type: functional, cell-based
# A2780 [13] = test: Anticancer activity against human A2780 cells assessed as cell growth inhibition incubated for 24 hrs […] by MTT assay; type: functional, cell-based; settings: A2780, 24 h
# MCF7 [14] = test: Anticancer activity against human MCF7 cells assessed as cell growth inhibition incubated for 3 days by MTT assay; type: functional, cell-based; settings: MCF7, 72 h
# [15] = Anticancer activity against human HOSE cells assessed as cell growth inhibition incubated for 24 hrs […] by MTT assay; type: functional, cell-based
# HeLa [16] = test: Anticancer activity against human HeLa cells assessed as cell growth inhibition incubated for 48 hrs by MTT assay; type: functional, cell-based
# HEK293 = test: Anticancer activity against human HEK293 cells assessed as cell growth inhibition incubated for 3 days by MTT assay; type: functional, cell-based; settings: HEK293, 72 h
# MCF7 [17] = test: Anticancer activity against human MCF7 cells assessed as cell growth inhibition incubated for 48 hrs by MTS assay; type: functional, cell-based; settings: MCF7, 48 h
# [18] = Growth inhibition of human leukaemia cell line; type: functional
# MDA-MB-231 [19] = test: Anticancer activity against human MDA-MB-231 cells assessed as cell growth inhibition incubated for 24 hrs by MTT assay; type: functional, cell-based; settings: MDA-MB-231, 24 h
# Ishikawa = test: cells; settings: Homo sapiens
# Description: Anti-tumor activity against human ishikawa cells assessed as anti-estrogenic potential
# HT-29 [20] = test: Anticancer activity against human HT-29 cells assessed as cell growth inhibition incubated for 3 days by MTT assay; type: functional, cell-based; settings: HT-29, 72 h
# BXPC-3 = test: Anticancer activity against human BXPC-3 cells assessed as cell growth inhibition incubated for 72 hrs by MTT assay; type: functional, cell-based; settings: BXPC-3, 72 h
# SK-BR-3 = test: Anticancer activity against human SK-BR-3 cells assessed as cell growth inhibition incubated for 24 hrs by MTT assay; type: functional, cell-based; settings: SK-BR-3, 24 h
# Caco-2 = test: cells; settings: Homo sapiens, Caco-2, 48 h
# Description: Anti cancer activity against human Caco-2 cell assessed as cell growth inhibition incubated for 48 hrs by Brdu assay
# [21] = Anticancer activity against human AZ-AHR cells assessed as cell growth inhibition incubate for 24 hrs by MTT assay; type: functional, cell-based
# HCT-116 [22] = test: Anticancer activity against human HCT-116 cells assessed as cell growth inhibition incubated for 5 days by SRB assay; type: functional, cell-based; settings: HCT-116, 120 h
# MCF7 [23] = test: Anticancer activity against human MCF7 cells assessed as reduction of cell viability incubated for 48 hrs by MTT assay; type: functional, cell-based; settings: MCF7, 48 h
# HepG2 [24] = test: cells; settings: Homo sapiens, HepG2, 48 h
# Description: Anti cancer activity against human HepG2 cell assessed as cell growth inhibition incubated for 48 hrs by Brdu assay
# [25] = Anticancer activity against human Peritoneal mesothelial cells assessed as cell growth inhibition by LDH release assay; type: functional, cell-based
# MCF7 [26] = test: Anticancer activity against human MCF7 cells assessed as cell growth inhibition incubated for 24 hrs by MTT assay; type: functional, cell-based; settings: MCF7, 24 h
# ASPC1 = test: Anticancer activity against human ASPC1 cells assessed as cell growth inhibition incubated for 72 hrs by MTT assay; type: functional, cell-based; settings: ASPC1, 72 h
# [27] = Cytotoxicity against human MCF-10A cells assessed as cell growth inhibition incubated for 24 hrs by MTT assay; type: toxicity, cell-based
# MCF7 [28] = test: Anticancer activity against human MCF7 cells assessed as cell growth inhibition by CyQuant assay; type: functional, cell-based
# HT-29 [29] = test: cells; settings: Homo sapiens, HT-29, 48 h
# Description: Anti cancer activity against human HT-29 cell assessed as cell growth inhibition incubated for 48 hrs by Brdu assay
# A-431 = test: Anticancer activity against human A-431 cells assessed as reduction of cell viability incubated for 48 hrs by MTT assay; type: functional, cell-based; settings: A-431, 48 h
# HCT-116 [30] = test: Anticancer activity against human HCT-116 cells assessed as cell growth inhibition; type: functional, cell-based
# A2780 [31] = test: Anticancer activity against human A2780 cells assessed as cell growth inhibition by LDH release assay; type: functional, cell-based
# Capan-2 = test: Anticancer activity against human Capan-2 cells assessed as cell growth inhibition incubated for 72 hrs by MTT assay; type: functional, cell-based; settings: Capan-2, 72 h
# [32] = Cytotoxicity activity against human CCD-1059Sk cells assessed as cell growth inhibition incubated for 48 hrs by MTS assay; type: toxicity, cell-based
# HeLa [33] = test: Anticancer activity against human HeLa cells assessed as cell growth inhibition measured after 72 hrs by MTT assay; type: functional, cell-based; settings: hela; read-out: IC50
# SK-OV-3 [34] = test: Anticancer activity against human SK-OV-3 assessed as cell growth inhibition incubated for 72 hrs by MTT assay; type: functional, cell-based; settings: SK-OV-3, 72 h
# MCF-12A = test: Anticancer activity against human MCF-12A cells assessed as reduction of cell viability incubated for 48 hrs by MTT assay; type: functional, cell-based
# [35] = Anticancer activity against Lung adenocarcinoma cell line assessed as cell growth inhibition measured after 72 hrs by MTT assay; type: functional, cell-based; settings: lung adenocarcinoma cell line
# HepG2 [36] = test: Anticancer activity against human HepG2 cells assessed as cell growth inhibition incubated for 24 hrs by MTT assay; type: functional, cell-based; settings: HepG2, 24 h
# [37] = Selectivity ratio of IC50 for human MCF7 cells to IC50 for human MDA-MB-231 cells; type: toxicity
# [38] = Selectivity ratio of IC50 for human MDA-MB-231 cells to IC50 for human MCF7 cells
# CCRF-CEM [39] = test: Anticancer activity against human CEM cells assessed as cell growth inhibition incubated for 48 hrs by Tryphan blue assay; type: functional, cell-based
# A549 [40] = test: Anticancer activity against human A549 cells assessed as cell growth inhibition incubated for 48 hrs by Tryphan blue assay; type: functional, cell-based; settings: A549, 48 h
# CCRF-CEM [41] = test: Anticancer activity against human CEM cells assessed as cell growth inhibition incubated for 48 hrs by MTT assay; type: functional, cell-based
# [42] = Potency index, ratio of test compound IC50 to Melphalan IC50 for antiproliferative activity against […] L1210 cells; type: functional
# L1210 = test: Anticancer activity against mouse L1210 cells assessed as cell growth inhibition incubated for 48 hrs by MTT assay; type: functional, cell-based; settings: L1210, 48 h
# [43] = Anticancer activity against human Molt 4/C8 cells assessed as cell growth inhibition incubated for 48 hrs by MTT assay; type: functional, cell-based; settings: Molt4/C8, 48 h
structure (smiles),measurement,setting,value
Oc1ccc(/C=C/c2cc(O)cc(O)c2)cc1 [RESVERATROL],IC50,A549 [1],66.2 µM and 10.5 µM
same,IC50,U-251,> 50 µM
same,IC50,MDA-MB-231 [2],40 µM
same,IC50,SK-OV-3 [3],380 µM
same,IC50,MCF7 [4],61.7 µM
same,IC50,[5],> 20 µM
same,IC50,PANC-1,70 µM
same,GI50,Renal cancer cell line,15.9 µM
same,IC50,HL-60,64.1 µM
same,IC50,HepG2 [6],355 µM
same,IC50 at 48 h,[7],83.1 µM
same,IC50,CYP1A,0.23 µM
same,IC50,HeLa [8],137 µM
same,Activity,MDA-MB-231 [9],58.45%
same,IC50,HT-29 [10],130 µM
same,IC50,HaCaT,85.2 µM
same,IC50,OVCAR-3,480 µM
same,IC50,[11],465 µM
same,IC50,[12],421 µM
same,IC50,A2780 [13],48 µM
same,IC50,MCF7 [14],127 µM
same,IC50,[15],485 µM
same,IC50,HeLa [16],152 µM
same,IC50,HEK293,12 µM
same,IC50,MCF7 [17],40.5 µM
same,GI50,[18],15.9 µM
same,IC50,MDA-MB-231 [19],90.6 µM
same,IC50,Ishikawa,3.4 µM
same,IC50,HT-29 [20],70 µM
same,IC50,BXPC-3,28 µM
same,IC50,SK-BR-3,110 µM
same,IC50,Caco-2,190 µM
same,IC50,[21],19.4 µM
same,IC50,HCT-116 [22],31 µM
same,IC50,MCF7 [23],24.6 µM
same,IC50,HepG2 [24],111 µM
same,IC50,[25],495 µM
same,IC50,MCF7 [26],88.2 µM
same,IC50,ASPC1,25 µM
same,IC50 at 24 h,[27],> 100 µM
same,IC50,MCF7 [28],68.3 µM
same,IC50,HT-29 [29],1120 µM
same,IC50,A-431,49.4 µM
same,IC50,HCT-116 [30],19.4 µM
same,IC50,A2780 [31],65 µM
same,IC50,Capan-2,26.5 µM
same,IC50 at 48 h,[32],188 µM
same,IC50,HeLa [33],98.2 µM and 10.5 µM
same,IC50,SK-OV-3 [34],48 µM
same,IC50,MCF-12A,93.5 µM
same,IC50,[35],10.5 µM and 24.9 µM
same,IC50,HepG2 [36],54.9 µM
Oc1ccc(-c2ccc3cc(O)ccc3c2)c(O)c1,Ratio IC50,[37],3.3
same,Ratio IC50,[38],1.9
same,IC50,MDA-MB-231 [19],48.2 µM
same,IC50,MCF7 [26],26.3 µM
same,IC50 at 24 h,[27],> 100 µM
COc1cc(/C=C/c2ccc(C)cc2)cc(OC)c1OC,IC50,CCRF-CEM [39],2.6 µM
same,IC50,A549 [40],2.6 µM
same,IC50,CCRF-CEM [41],3.1 µM
same,Ratio IC50,[42],2
same,IC50,L1210,1.2 µM
same,IC50,[43],1.4 µM
